# Test results taken from patent US20100273714A1, “PEPTIDE COMPOUNDS FOR TREATING REFRACTORY STATUS EPILEPTICUS” (SCHWARZ PHARMA AG, priority 2006, published 2010).
# How the values were obtained:
# [1] = system: self-sustaining status epilepticus (SSSE) in perforant path stimulated rats; assay: Perforant path stimulation model of self-sustaining status epilepticus (acute seizure activity); assay type: in vivo, Male Wistar rats
# Protocol: Male Wistar rats were implanted with a stimulating electrode into the angular bundle of the perforant path and a recording electrode into the granule cell layer of the dentate gyrus. Perforant path stimulation (PPS) was delivered for 30 or 60 minutes with the following parameters: 10 s, 20 Hz trains of 1 ms, 30 V pulses delivered every minute together with continuous 2 Hz stimulation with the same parameters.
# (§1) The following indices were used to quantify seizure activity: cumulative seizure time (duration of SSSE, subtracting interictal time) and the number of seizure episodes. In addition the number of spontaneous seizures was measured 6 months following induction of SSSE in order to assess status epilepticus induced epileptogenesis.
# [2] = system: status epilepticus in the rat lithium/pilocarpine model; assay: Lithium/pilocarpine model of status epilepticus; assay type: in vivo, Rats
# [3] = system: status epilepticus induced epileptogenesis (spontaneous recurrent seizures) in perforant path stimulated rats; assay: Long term (disease-modifying) effects: spontaneous recurrent seizures at least 6 months after SSSE induction, EEG/video monitoring; assay type: in vivo; settings: for spike frequency: early treatment, controls 9534±1114; for number of spontaneous recurrent seizures (SRSs) per week: treatment 10 min after perforant path stimulation, vehicle 110±8; for number of seizures per week: not statistically significant
# Protocol: as §1
# SSSE was induced in rats as described in Example 1. After SSSE induction, and at least 6 months wait (“silent period”) the animals were placed in EEG/telemetry/videotape continuously for two weeks for chronic EEG and video monitoring, but the second week, which was more remote from anaesthesia and surgery, was used to calculate seizure frequency (24 hours/day×7). Electrographic seizures were captured by the Harmony software, and were confirmed by offline manual review of the EEG and videotapes. The following indices were counted: total number of spikes of seizures for 7 days of observation, mean seizure duration, light/dark distribution.
# [4] = system: self-sustaining status epilepticus (SSSE) in perforant path stimulated rats; settings: Mazarati et al. 1999, cited from earlier work; for effectiveness against SSSE, delayed administration (in words): administration delayed / later in status epilepticus; for effectiveness against SSSE, early administration (in words): given before or at onset of SSSE / within the first 10 min of status epilepticus
# [5] = 50 mg/kg i.p., treatment initiated 40 minutes after PPS, FIG. 1
# [6] = 50 mg/kg, administered 40 min after onset of SSSE
# [7] = given 10 min after perforant path stimulation, doses 10 mg/kg and above
smiles,measurement,setting,value
"COC[C@@H](NC(C)=O)C(=O)NCc1ccccc1 [lacosamide, (R)-2-acetamido-N-benzyl-3-methoxypropionamide]",cumulative seizure duration (in words),[1]; [5],substantial reduction
same,seizure frequency (in words),[1]; [5],substantial reduction
same,reduction in cumulative seizure duration,[1]; [6],40%
same,reduction in seizure frequency,[1]; [6],40%
same,anticonvulsant effect (in words),[1]; given 10 min after perforant path stimulation,effective as an anticonvulsant
same,cumulative time spent seizing after treatment (in words),[1]; [7],reduced
same,number of seizures (in words),[1]; [7],reduced the number of seizures
same,number of seizures (in words),"[1]; late treatment, 40 min after perforant path stimulation",non-significant reduction
same,motor seizure symptoms (in words),"[2]; 50 mg/kg, 10 minutes after onset of status epilepticus",reduced motor seizure symptoms
same,spike frequency,[3]; 3 mg/kg group,7557±1945 spikes/week
same,number of spontaneous recurrent seizures (SRSs) per week,[3]; 3 mg/kg,85±5 SRS/week
same,number of spontaneous recurrent seizures (SRSs) per week,[3]; 10 mg/kg,66±8 SRS/week
same,number of seizures per week,"[3]; 10 mg/kg, treatment 40 min after perforant path stimulation, control 110±8",100±7 seizures per week
same,spike frequency,[3]; 30 mg/kg group,2969±542 spikes/week
same,median number of seizures,"[3]; 30 mg/kg group, treatment 40 min after perforant path stimulation",0
same,number of spontaneous recurrent seizures (SRSs) per week,[3]; 30 mg/kg,42±8 SRS/week
same,number of seizures per week,"[3]; 30 mg/kg, treatment 40 min after perforant path stimulation, control 110±8",67±67 seizures per week
same,spike frequency,[3]; 50 mg/kg group,2588±370 spikes/week
same,median number of seizures,"[3]; 50 mg/kg group, treatment 40 min after perforant path stimulation",0
same,number of spontaneous recurrent seizures (SRSs) per week,[3]; 50 mg/kg,34±6 SRS/week
same,number of seizures per week,"[3]; 50 mg/kg, treatment 40 min after perforant path stimulation, control 110±8",45±29 seizures per week
same,percentage of rats developing chronic epilepsy / spontaneous recurrent seizures,"[3]; 30-50 mg/kg, 6 months after induction of SSSE, vehicle 100%",30%
same,reduction of number of seizures per week (seizure frequency),"[3]; 30-50 mg/kg, after six months, vehicle average 110 seizures per week",60%
same,spike frequency,"[3]; ""mg/kg"" group (dose not given)",3536±380 spikes/week
same,number of animals showing spontaneous recurrent seizures,"[3]; treatment 40 min after perforant path stimulation, two higher dosage groups combined, control 6/6, p<0.05",3/9
same,seizure numbers per week,"[3]; treatment 40 min after perforant path stimulation, two highest treatment groups combined, control 110±8",55±32 seizures per week
O=C1NC(=O)C(c2ccccc2)(c2ccccc2)N1 [phenytoin],"effectiveness against SSSE, delayed administration (in words)",[4],lost their effectiveness
same,"effectiveness against SSSE, early administration (in words)",[4],highly effective
CN1C(=O)CN=C(c2ccccc2)c2cc(Cl)ccc21 [diazepam],efficacy of diazepam alone (in words),[2]; administered 15 min after onset of status epilepticus,ineffective
same,"effectiveness against SSSE, delayed administration (in words)",[4],lost their effectiveness
same,"effectiveness against SSSE, early administration (in words)",[4],highly effective
